Columns and labels:
Brd4 bromodomain 1 = molecular target: T1, Brd4 bromodomain 1 (Homo sapiens, UniProt O60885); experiment: Inhibition of binding of tetra-acetylated histone H4 to Brd4 bromodomain 1 (TR-FRET); conditions: His-tagged Brd4 bromodomain 1 200 nM, tetra-acetylated histone H4 peptide 25-50 nM, 2 hours room temperature
T1 construct: made in house; host or cells: E. coli BL21(DE3)
Outline: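 His-tagged Brd4 BD1 was expressed in E. coli and purified by Ni affinity and size exclusion. TR-FRET competition with tetra-acetylated H4 was run in 30 mM HEPES pH 7.4, 30 mM NaCl, 0.3 mM CHAPS, 20 mM phosphate pH 7.0, 320 mM KF and 0.08% BSA, with 0.2% DMSO.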

Human AML MV-4-11 cells = experiment: Inhibition of cell proliferation in human AML MV-4-11 cells (CellTiter Aqueous One); assay type: cell-based; set-up: key: Active: Compounds with an IC50 value less than 30 μM were deemed to be active; conditions: 72 hours, 30 μM to 0.2 μM
Description: MV4-11 cells: 96-well plates were seeded with 5×10^4 cells per well of exponentially growing human AML MV-4-11 (CRL-9591) cells and immediately treated with two-fold dilutions of test compounds, ranging from 30 μM to 0.2 μM. Triplicate wells were used for each concentration, as well as a media only and three DMSO control wells. The cells and compounds were incubated at 37° C., 5% CO2 for 72 hours before adding 20 μL of the CellTiter Aqueous One Solution (Promega) to each well and incubated at 37° C., 5% CO2 for an additional 3-4 hours. The absorbance was taken at 490 nm in a spectrophotometer and the percentage of proliferation relative to DMSO-treated cells was calculated after correction from the blank well. IC50 were calculated using the GraphPad Prism software.

c-myc = experiment: Inhibition of c-myc expression in MV4-11 cells (real-time PCR of mRNA); assay type: cell-based, Human; set-up: key: Active: Compounds with an IC50 value less than 30 uM were deemed to be active; conditions: 3 hours at 37° C.
Description: MV4-11 cells (2.5×10^4 cells) were plated in 96 well U-bottom plates with test compound or DMSO (0.1%), and incubated for 3 hours at 37° C. Cells were then harvested by centrifugation, lysed, and mRNA was isolated using the mRNA catcher plus kit (Invitrogen). Reverse transcription of the mRNA and duplex amplification of the c-myc and cyclophilin cDNAs was performed using the RNA Ultrasense kit (Invitrogen) and a ViiA7 real-time PCR machine (Applied Biosystems). IC50 values were determined from a dose response curve.

[1] = murine model; Lamotte et al. (2012); cited from earlier work
IL-6 = conditions: cited from earlier work
[2] = system: NUT (nuclear protein in testis) midline carcinoma (NMC); conditions: Filippakopoulos et al. (2010); cited from earlier work
multiple myeloma = conditions: associated with cell cycle arrest and cellular senescence; Delmore et al. (2011); cited from earlier work

FRET activity (<50 uM) (Brd4 bromodomain 1) | melting point [°C] | Compound | further results
Active |  | COc1cc(OC)c2c(=O)[nH]c(-c3ccc(N4CCN(C(C)C)CC4)cc3)nc2c1 [Example 10, 2-(4-(4-Isopropylpiperazin-1-yl)phenyl)-5,7-dimethoxyquinazolin-4(3H)-one] | cell proliferation activity (<30 uM) (Human AML MV-4-11 cells): Inactive; c-myc activity (<30 uM) (c-myc): Active
Active | 230 to 231 | COc1cc(OC)c2c(=O)[nH]c(-c3ccc(OCCN4CCCC4)c(C)c3)nc2c1 [Example 73, 5,7-Dimethoxy-2-(3-methyl-4-(2-(pyrrolidin-1-yl)ethoxy)phenyl)quinazolin-4(3H)-one] | c-myc activity (<30 uM) (c-myc): Active
Inactive | 65 to 68 | Cc1cc(-c2nc3cc(OC(C)C)cc(OC(C)C)c3c(=O)[nH]2)cc(C)c1OCCN1CCCC1 [Example 88, 2-(3,5-Dimethyl-4-(2-(pyrrolidin-1-yl)ethoxy)phenyl)-5,7-diisopropoxyquinazolin-4(3H)-one] | 
Active | 181 to 182 | Cc1cc(C)c2c(=O)[nH]c(-c3cc(C)c(OCCN4CCCC4)c(C)c3)nc2c1 [Example 89, 2-(3,5-Dimethyl-4-(2-(pyrrolidin-1-yl)ethoxy)phenyl)-5,7-dimethylquinazolin-4(3H)-one] | 
Active | 295 to 296 | COc1cc(OC)c2c(=O)[nH]c(-c3ccc(Cc4nnn[nH]4)cc3)nc2c1 [Example 96, 2-(4-((1H-Tetrazol-5-yl)methyl)phenyl)-5,7-dimethoxyquinazolin-4(3H)-one] | 
Inactive | 228.2 to 229.9 | COc1cc(OCCOCc2ccccc2)cc2nc(-c3ccncc3)[nH]c(=O)c12 [Example 98, 7-(2-(Benzyloxy)ethoxy)-5-methoxy-2-(pyridin-4-yl)quinazolin-4(3H)-one] | 
Active | 291 to 292 | COc1cc(OC)c2c(=O)[nH]c(-c3cc(C)nc(C)c3)nc2c1 [Example 99, 2-(2,6-Dimethylpyridin-4-yl)-5,7-dimethoxyquinazolin-4(3H)-one] | 
Active | 228.8 to 230.4 | COCCOc1cc(OC)c2c(=O)[nH]c(-c3cc(C)nc(C)c3)nc2c1 [Example 100, 2-(2,6-Dimethylpyridin-4-yl)-5-methoxy-7-(2-methoxyethoxy)quinazolin-4(3H)-one] | 
Active | 149.8 to 151.4 | COCCOc1cc(OCCOC)c2c(=O)[nH]c(-c3cc(C)nc(C)c3)nc2c1 [Example 101, 2-(2,6-Dimethylpyridin-4-yl)-5,7-bis(2-methoxyethoxy)quinazolin-4(3H)-one] | 
Active | 190 to 191 | COc1cc(OCCN2CCCC2)c2c(=O)[nH]c(-c3cc(C)nc(C)c3)nc2c1 [Example 102, 2-(2,6-Dimethylpyridin-4-yl)-7-methoxy-5-(2-(pyrrolidin-1-yl)ethoxy)quinazolin-4(3H)-one] | 
Active | 223 to 224 | COc1cc(OCCOc2ccccc2)cc2nc(-c3cc(C)nc(C)c3)[nH]c(=O)c12 [Example 103, 2-(2,6-Dimethylpyridin-4-yl)-5-methoxy-7-(2-phenoxyethoxy)quinazolin-4(3H)-one] | 
Active | 172.3 to 173.2 | COc1cc(OCCOc2ccccc2)c2c(=O)[nH]c(-c3cc(C)nc(C)c3)nc2c1 [Example 104, 2-(2,6-Dimethylpyridin-4-yl)-7-methoxy-5-(2-phenoxyethoxy)quinazolin-4(3H)-one] | 
Active | 227 to 229 | COc1cc(OCCN2CCCC2)cc2nc(-c3cc(C)nc(C)c3)[nH]c(=O)c12 [Example 106, 2-(2,6-Dimethylpyridin-4-yl)-5-methoxy-7-(2-(pyrrolidin-1-yl)ethoxy)quinazolin-4(3H)-one] | 
Active | 124 to 125 | Cc1cc(-c2nc3cc(OCCOC(C)C)cc(OCCOC(C)C)c3c(=O)[nH]2)cc(C)n1 [Example 108, 2-(2,6-dimethylpyridin-4-yl)-5,7-bis(2-isopropoxyethoxy)quinazolin-4(3H)-one] | 
Active | 178 to 180 | COc1cc(OCCOCc2ccccc2)cc2nc(-c3cc(C)nc(C)c3)[nH]c(=O)c12 [Example 109, 7-(2-(Benzyloxy)ethoxy)-2-(2,6-dimethylpyridin-4-yl)-5-methoxyquinazolin-4(3H)-one] | 
Active | 260 to 262 | COCCOc1cc(OC)c2c(=O)[nH]c(-c3ccnc(C)c3)nc2c1 [Example 110, 5-methoxy-7-(2-methoxyethoxy)-2-(2-methylpyridin-4-yl)quinazolin-4(3H)-one] | 
Active | 60.4 to 62.3 | COCCOc1cc(OCCN2CCCC2)c2c(=O)[nH]c(-c3cc(C)nc(C)c3)nc2c1 [Example 111, 2-(2,6-Dimethylpyridin-4-yl)-7-(2-methoxyethoxy)-5-(2-(pyrrolidin-1-yl)ethoxy)quinazolin-4(3H)-one] | 
Active | 244.8 to 246 | COc1cc(OC)c2c(=O)[nH]c(-c3cccc(OCCO)c3)nc2c1 [Example 112, 2-(3-(2-Hydroxyethoxy)phenyl)-5,7-dimethoxyquinazolin-4(3H)-one] | 
Active | 106.9 to 109.1 | COc1cc(OC)c2c(=O)[nH]c(-c3cc(C)cc(OCCO)c3)nc2c1 [Example 113, 2-(3-(2-Hydroxyethoxy)-5-methylphenyl)-5,7-dimethoxyquinazolin-4(3H)-one] | 
Active | 159 to 160 | COc1cc(OCCN2CCCC2)cc(-c2nc3cc(OC)cc(OC)c3c(=O)[nH]2)c1 [Example 114, 5,7-Dimethoxy-2-(3-methoxy-5-(2-(pyrrolidin-1-yl)ethoxy)phenyl)quinazolin-4(3H)-one] | cell proliferation activity (<30 uM) (Human AML MV-4-11 cells): Active; c-myc activity (<30 uM) (c-myc): Active
Inactive | 264 to 265 | COc1cc(OCCNC(C)=O)cc(-c2nc3cc(OC)cc(OC)c3c(=O)[nH]2)c1 [Example 115, N-(2-(3-(5,7-dimethoxy-4-oxo-3,4-dihydroquinazolin-2-yl)-5-methoxyphenoxy)ethyl)acetamide] | cell proliferation activity (<30 uM) (Human AML MV-4-11 cells): Active; c-myc activity (<30 uM) (c-myc): Inactive
 |  | COc1cc2c(cc1-c1c(C)noc1C)ncc1[nH]c(=O)n([C@H](C)c3ccccn3)c12 [I-BET151] | bacterial-induced inflammation and sepsis [1]: suppress bacterial-induced inflammation and sepsis; IL-6 expression in vivo (IL-6): decrease IL-6 expression
 |  | CCNC(=O)C[C@@H]1N=C(c2ccc(Cl)cc2)c2cc(OC)ccc2-n2c(C)nnc21 [I-BET] | IL-6 expression in vivo (IL-6): decrease IL-6 expression
 |  | Cc1sc2c(c1C)C(c1ccc(Cl)cc1)=N[C@@H](CC(=O)OC(C)(C)C)c1nnc(C)n1-2 [JQ1] | antitumor activity in murine xenograft models of NMC [2]: potent antitumor activity; antiproliferation in multiple myeloma (multiple myeloma): potent antiproliferator

Reference: patent publication US20130281399A1, “TREATMENT OF DISEASES BY EPIGENETIC REGULATION” (RVX Therapeutics Inc., priority 2012, published 2013)
